Measurements reported in ChEMBL document CHEMBL5537127, “Design and synthesis of novel hederagonic acid analogs as potent anti-inflammatory compounds capable of protecting against LPS-induced acute lung injury” (Eur J Med Chem, 2024).
Calls of active or inactive are those of the source. The rule behind the calls is not given here.

What was measured:
[1] = test system: Mus musculus; experiment: Antiinflammatory activity against TPA-induced mouse ear edema model assessed as reduction in ear edema at 40 mg/kg, po administered for 7 consecutive days; type: functional; set-up: scale not given: the % may be the effect or the level left; details: time 7 day
[2] = test system: RAW264.7; experiment: Anti-inflammatory activity against LPS-induced mouse RAW264.7 cells assessed as inhibition of p65 nuclear translocation preincubated for 2 hrs followed by LPS addition and measured after 2 hrs by FITC/DAPI staining based laser confocal microscopy analysis; type: functional, cell-based; details: time 4.0 hrs
[3] = test system: RAW264.7; experiment: Anti-inflammatory activity against LPS-induced mouse RAW264.7 cells assessed as inhibition of IRF3 nuclear translocation preincubated for 2 hrs followed by LPS addition and measured after 2 hrs by FITC/DAPI staining based laser confocal microscopy analysis; type: functional, cell-based; details: time 4.0 hrs
[4] = test system: RAW264.7; experiment: Anti-inflammatory activity against LPS-induced mouse RAW264.7 cells assessed as decrease in IL-6 expression preincubated for 2 hrs followed by LPS addition and measured after 12 hrs by ELISA; type: functional, cell-based; details: time 14.0 hrs
[5] = test system: RAW264.7; experiment: Anti-inflammatory activity against LPS-induced mouse RAW264.7 cells assessed as decrease in TNF-alpha expression preincubated for 2 hrs followed by LPS addition and measured after 12 hrs by ELISA; type: functional, cell-based; details: time 14.0 hrs
[6] = test system: RAW264.7; experiment: Anti-inflammatory activity against LPS-induced mouse RAW264.7 cells assessed as decrease in IFN-beta expression preincubated for 2 hrs followed by LPS addition and measured after 12 hrs by ELISA; type: functional, cell-based; details: time 14.0 hrs
[7] = test system: RAW264.7; experiment: Anti-inflammatory activity against LPS-induced mouse RAW264.7 cells assessed as decrease in TBK1 phosphorylation at 1 uM by Western blotting analysis; type: functional, cell-based
[8] = test system: RAW264.7; experiment: Anti-inflammatory activity against LPS-induced mouse RAW264.7 cells assessed as decrease in IRF3 phosphorylation at 1 uM by Western blotting analysis; type: functional, cell-based
[9] = test system: RAW264.7; experiment: Anti-inflammatory activity against LPS-induced mouse RAW264.7 cells assessed as decrease in p65 phosphorylation at 1 uM by Western blotting analysis; type: functional, cell-based
[10] = test system: RAW264.7; experiment: Anti-inflammatory activity against LPS-induced mouse RAW264.7 cells assessed as decrease in IkappaB phosphorylation at 1 uM by Western blotting analysis; type: functional, cell-based
[11] = test system: RAW264.7; experiment: Anti-inflammatory activity against LPS-induced mouse RAW264.7 cells assessed as decrease in STING protein level at 1 uM by Western blotting analysis; type: functional, cell-based
[12] = test system: Mus musculus; experiment: Anti-inflammatory activity against LPS-stimulated BALB/c mouse acute lung injury model assessed as decrease in STING expression at 2.5 mg/kg, po administered for 3 days by Western blotting analysis; type: functional, organism-based; details: time 3.0 day
[13] = test system: Mus musculus; experiment: Anti-inflammatory activity against LPS-stimulated BALB/c mouse acute lung injury model assessed as decrease in TBK1 phosphorylation at 2.5 mg/kg, po administered for 3 days by Western blotting analysis; type: functional, organism-based; details: time 3.0 day
[14] = test system: Mus musculus; experiment: Anti-inflammatory activity against LPS-stimulated BALB/c mouse acute lung injury model assessed as decrease in IRF3 phosphorylation at 2.5 mg/kg, po administered for 3 days by Western blotting analysis; type: functional, organism-based; details: time 3.0 day
[15] = test system: Mus musculus; experiment: Anti-inflammatory activity against LPS-stimulated BALB/c mouse acute lung injury model assessed as decrease in p65 phosphorylation at 2.5 mg/kg, po administered for 3 days by Western blotting analysis; type: functional, organism-based; details: time 3.0 day
[16] = test system: Mus musculus; experiment: Anti-inflammatory activity against LPS-stimulated BALB/c mouse acute lung injury model assessed as decrease in IkappaB phosphorylation at 2.5 mg/kg, po administered for 3 days by Western blotting analysis; type: functional, organism-based; details: time 3.0 day

Row | SMILES | Activity [1] [%] | Activity [2] | Activity [3] | Activity [4] | Activity [5] | Activity [6] | Activity [7] | Activity [8] | Activity [9] | Activity [10] | Activity [11] | Activity [12] | Activity [13] | Activity [14] | Activity [15] | Activity [16]
1 | CC1(C)C(=O)/C(=C\c2cnccn2)C[C@]2(C)[C@H]3CC=C4[C@@H]5C[C@@](C)(C(=O)O)CC[C@]5(C)CC[C@@]4(C)[C@]3(C)CC[C@@H]12 | 59.69 |  |  |  |  |  |  |  |  |  |  |  |  |  |  | 
2 | O=C(Nc1ccc(I)cc1)c1ccc([N+](=O)[O-])o1 |  | Active | Active | Active | Active | Active | Active | Active | Active | Active | Active | Active | Active | Active | Active | Active
